# Values of other authors in US6365128B1, “Monitoring gastrointestinal function to guide care of high risk patients” (Medical Defence Technologies, LLC, priority 1998, dated 2002).
# Conditions: in vivo
compound,measurement,value
"CSCC[C@H](NC(=O)[C@H](Cc1c[nH]c2ccccc12)NC(=O)CCNC(=O)OC(C)(C)C)C(=O)N[C@@H](CC(=O)O)C(=O)N[C@@H](Cc1ccccc1)C(N)=O [Pentagastrin, pentagastrin]",half life,approximately 10 minutes
